What all share (assay type): in vivo, C57BL/6J diet-induced obesity (DIO) male mice
The nature of experiment [1]: Example 2: change in body mass on day 26. The settings on record: 2-way ANOVA. An excerpt:
(§1) FIG. 5 depicts the experimental approach for this Example, and additional details can be found in Tables 3 and 4 below. C57BL/6J diet-induced obesity (DIO) male mice were obtained at 12 weeks of age and housed singly in the MCW animal facility (https://www.jax.org/jax-mice-and-services/strain-data-sheet-pages/phenotype-information-380050). Mice were maintained on a 60% high fat diet (Research Diets D12492) throughout the experiment. Mice were acclimated for 2 weeks prior to treatment with either semaglutide, reutericyclin (RTC), both drugs, or neither drug.
(§2) Mice were weight-matched into 4 groups (N=10 per group) and given either reutericyclin via gavage to achieve a dosage of 100 μg/kg or injected intraperitoneally (IP) with semaglutide to administer 1 nmole/kg/day. All mice experienced both gavage and injection with either drug or vehicle. Vehicle for reutericyclin and semaglute are identical: 3.0% DMSO in phosphate buffered saline (PBS). […]
(§3) Mice were weighed daily to assess changes in body mass. […] Feeding efficiency is calculated by measuring the amount of weight gained by each mouse per gram of food consumed over a period of 5 days. Feeding efficiency shown here was calculated over days 21-26. […]

Experiment [2] in a line: Example 1: fasted blood glucose. The settings on record: 2-way ANOVA of FIG. 4B; reutericyclin 100 μg/kg gavage, semaglutide 1 nmole/kg/day IP. An excerpt:
(§4) FIG. 1 depicts the experimental approach for this Example. C57BL/6J diet-induced obesity (DIO) male mice were obtained at 12 weeks of age and housed singly in the MCW animal facility (www.jax.org/jax-mice-and-services/strain-data-sheet-pages/phenotype-information-380050). Mice were maintained on a 60% high fat diet (HFD) (Research Diets D12492) throughout the experiment. Mice were acclimated for 2 weeks prior to treatment with either semaglutide, reutericyclin, both drugs, or neither drug.
(§5) Mice were weight-matched into 4 groups (N=10 per group) and given either reutericyclin via gavage to achieve a dosage of 100 μg/kg or injected intraperitoneally (IP) with semaglutide to administer 1 nmole/kg/day. All mice experienced both gavage and injection with either drug or vehicle. Vehicle for reutericyclin and semaglute are identical: 3.0% DMSO in phosphate buffered saline (PBS).
(§6) The four groups were: the control group (HFD-PBS), which received vehicle only; the HFD-RTC group, which were administered reutericyclin at a dose of 100 μg/kg of body weight in PBS; the HFD-RTC-SemaG group, which received reutericyclin at a dose of 100 μg/kg of body weight and 1 nanomole of semaglutide/kg of body weight in vehicle; and the HFD-SemaG group, which were administered 1 nanomole of semaglutide/kg of body weight in vehicle. […]

A short description of experiment [3]: Example 2: change in weight at day 46 after withdrawal of the semaglutide. Conditions: 2-way ANOVA.
From the text: as §1, §2, §3

Experiment [4] can be described thus: Example 2: feeding efficiency. The settings on record: 2-way ANOVA, days 21-26.
From the text: as §1, §2, §3

A short description of experiment [5]: Example 2: fasted blood glucose at day 27. Conditions: 4 hours without food.
From the text: as §1, §5
The four groups of mice were as follows: Group 1 (black) (HFD-PBS) received no drug but experienced gavage and injection; Group 2 (red) (HFD-RTC) received reutericyclin via gavage and experienced injection with vehicle only; Group 3 (green) (HFD-SemaG) received no drug via gavage and experienced injection with semaglutide; and Group 4 (purple) (HFD-RTC-SemaG) received reutericyclin via gavage and experienced injection with semaglutide.
Fasted blood glucose (4 hours without food) was performed with standard glucose test strips. Blood was obtained by a tail prick on day 27 of the experiment.
For each 2-way ANOVA statistical analyses, injection refers to semaglutide, gavage refers to reutericyclin, and interaction refers to the combination of injection and gavage.
FIG. 9 is a bar graph depicting the fasted blood glucose level at day 27 as described in Example 2.

The nature of experiment [6]: Example 1: eating behavior, calories ingested per day. The settings on record: 2-way ANOVA of FIG. 4A; reutericyclin 100 μg/kg gavage, semaglutide 1 nmole/kg/day IP.
From the text: as §4, §5, §6

With `CCCCCCC/C=C/C(=O)N1C(=O)C(C(C)=O)=C(O)[C@H]1CC(C)C` [reutericyclin, (5R)-1-(2-decenoyl)-2-hydroxy-3-acetyl-5-isobutyl-42-pyrroline-4-one], the “Significant?, change in body mass” value in experiment [1] is recorded as “Yes”. For the same molecule, the “% of total variation, change in body mass” value in experiment [1] (gavage = reutericyclin 100 μg/kg, injection = semaglutide 1 nmole/kg/day IP, interaction = combination) is recorded as 7.893%. Besides, the “effect on fasting blood glucose” value in experiment [2] is on record as “no noted effect”. Further, in experiment [3] (semaglutide stopped at day 26), the “Significant?, change in weight after withdrawal of the semaglutide” value is on record as “Yes”. Moreover, the “% of total variation, change in weight after withdrawal of the semaglutide” value in experiment [3] (semaglutide stopped at day 26, gavage = reutericyclin, injection = semaglutide, interaction = combination) is 5.422%. Further, in experiment [4], the “Significant?, feeding efficiency” value is “Yes”. In addition, in experiment [4] (weight gained per gram of food consumed, gavage = reutericyclin, injection = semaglutide, interaction = combination), the “% of total variation, feeding efficiency” value is listed as 8.034%. Besides, in experiment [5] (2-way ANOVA), the “Significant?, fasted blood glucose level” value is reported as “No”. In experiment [5] (2-way ANOVA, gavage = reutericyclin, injection = semaglutide, interaction = combination), the “% of total variation, fasted blood glucose level” value worked out at 9.241e−005%. For the same molecule, the “effect on blood glucose levels” value in experiment [5] (tail prick) is on record as “does not”. Moreover, the “effect on eating (calories ingested per day)” value in experiment [6] is recorded as “no noted effect”.

The record behind these values is patent US20260294867A1, “METHODS FOR WEIGHT LOSS AND/OR REDUCING WEIGHT GAIN” (The Medical College of Wisconsin, Inc., priority 2023, published 2026).
